Our source for the inhibition values is patent US9993001B2, “Herbicidal composition” (ISHIHARA SANGYO KAISHA, LTD., priority 2014, dated 2018).

Assay type in all cases: in vivo
The subject of test [1] is common purslane (Portulaca oleracea L.). As to the kind of experiment: Test Example 12: corn field, soil treatment, metobromuron + nicosulfuron. To be noted: soil, read-out: Growth inhibition rate of common purslane (%) Measured value. The text has this: (§1) When the herbicidal activity in a case where two active ingredients are combined, is larger than the simple sum of the respective herbicidal activities of the two active ingredients (the expected activity), it is called a synergistic effect. The activity expected by the combination of two active ingredients can be calculated as follows (Colby S. R., “Weed”, vol. 15, p. 20-22, 1967). E=α+β−(α×β[…]) where α: growth inhibition rate when treated with x (g/ha) of herbicide X, • β: growth inhibition rate when treated with y (g/ha) of herbicide Y, • E: growth inhibition rate expected when treated with x (g/ha) of herbicide X and y (g/ha) of herbicide Y.
(§2) On the 19th day after treatment, the state of growth of barnyardgrass was visually observed and evaluated in accordance with the following standards. The growth inhibition rate (%) [measured value] and the growth inhibition rate (%) [calculated value] calculated by the Colby's method, are shown in Table 2.
(§3) Growth inhibition rate (%)=inhibition rate) (%) of 0 (equivalent to the non-treated area) to 100 (complete kill) […]
On the 30th day after treatment, the state of growth of common purslane (Portulaca oleracea L.) which occurred naturally, was visually observed and evaluated in the same manner as in Test Example 1.

Test [2] has as its system Nepalese Smartweed (Persicaria nepalensis (Meisn.) H. Gross). Description: Test Example 3: soybean field, soil treatment, metobromuron + S-metolachlor. Particulars: soil, read-out: Growth inhibition rate of Nepalese Smartweed (%) Measured value.
Text: as §1, §2, §3
On the 50th day after treatment, the state of growth of Nepalese Smartweed (Persicaria nepalensis (Meisn.) H. Gross) which occurred naturally, was visually observed and evaluated in the same manner as in Test Example 1.

The subject of test [3] is black nightshade (Solanum nigrum L.). As to the kind of experiment: Test Example 31: pot, soil treatment, metobromuron + thiobencarb. Particulars: soil, read-out: Growth inhibition rate of black nightshade (%) Measured value.
Text: as §1, §2
(§4) Growth inhibition rate (%)=inhibition rate) (%) of 0 (equivalent to the non-treated area) to 100 (complete kill)
Soil was put into a 1/300,000 ha pot, and seeds of common lambsquarters (Chenopodium album L.) were sown. On the day after seeding, predetermined amounts of SC containing metobromuron as active ingredient (same as in Test Example 1) and EC containing thiobencarb as active ingredient (trade name: Saturn NYUZAI, manufactured by KUMIAI CHEMICAL INDUSTRY Co., Ltd.) were diluted with water corresponding to 1,000 L per hectare and applied for soil treatment.
On the 20th day after treatment, the state of growth of common lambsquarters was visually observed and evaluated in the same manner as in Test Example 1.
The test was carried out in the same manner as in Test Example 30 except that common lambsquarters (Chenopodium album L.) was changed to black nightshade (Solanum nigrum L.), to obtain the results as shown in Table 32.

The subject of test [4] is large crabgrass (Diqitaria sanquinalis L.). As to the kind of experiment: Test Example 22: pot, soil treatment, metobromuron + prometryn. To be noted: Digitaria sanguinalis, soil, read-out: Growth inhibition rate of large crabgrass (%) Measured value.
Text: as §1, §2, §4
Soil was put into a 1/300,000 ha pot, and seeds of barnyardgrass (Echinochloa crus-qalli L.) were sown. On the day after seeding, predetermined amounts of SC containing metobromuron as active ingredient (same as in Test Example 1) and WP containing prometryn as active ingredient (trade name: Gesagard 50, manufactured by Nippon Kayaku Co., Ltd.) were diluted with water corresponding to 1,000 L per hectare and applied for soil treatment.
On the 21st day after treatment, the state of growth of barnyardgrass was visually observed and evaluated in the same manner as in Test Example 1.
The test was carried out in the same manner as in Test Example 21 except that barnyardgrass (Echinochloa crus-qalli L.) was changed to large crabgrass (Diqitaria sanquinalis L.), to obtain the results as shown in Table 23.

The subject of test [5] is barnyardgrass (Echinochloa crus-qalli L.). Description: Test Example 4: soybean field, soil treatment, metobromuron + trifluralin. To be noted: soil, read-out: Growth inhibition rate of barnyardgrass (%) Measured value.
Text: as §1, §2, §3
On the 50th day after treatment, the state of growth of barnyardgrass (Echinochloa crus-qalli L.) which occurred naturally, was visually observed and evaluated in the same manner as in Test Example 1.

The subject of test [6] is barnyardgrass (Echinochloa crus-galli L.). Description: Test Example 32: pot, soil treatment, metobromuron + chlorpropham. Particulars: soil, read-out: Growth inhibition rate of barnyardgrass (%) Measured value.
Text: as §1, §2, §4
Soil was put into a 1/300,000 ha pot, and seeds of barnyardgrass (Echinochloa crus-galli L.) were sown. On the day after seeding, predetermined amounts of SC containing metobromuron as active ingredient (same as in Test Example 1) and EC containing chlorpropham as active ingredient (same as in Test Example 1) were diluted with water corresponding to 1,000 L per hectare and applied for soil treatment.
On the 26th day after treatment, the state of growth of barnyardgrass was visually observed and evaluated in the same manner as in Test Example 1.

Test [7] deals with barnyardgrass (Echinochloa crus-qalli L.). Description: Test Example 5: adzuki bean field, soil treatment, metobromuron + fluazifop-P-butyl. To be noted: Echinochloa, soil, read-out: Growth inhibition rate of barnyardgrass (%) Measured value.
Text: as §1, §2, §3
On the 39th day after treatment, the state of growth of barnyardgrass (Echinochloa crus-qalli L.) which occurred naturally, was visually observed and evaluated in the same manner as in Test Example 1.

The test system of test [8] is redroot pigweed (Amaranthus retroflexus L.). Description: Test Example 9: corn field, soil treatment, metobromuron + S-metolachlor. To be noted: soil, read-out: Growth inhibition rate of redroot pigweed (%) Measured value.
Text: as §1, §2, §3
On the 49th day after treatment, the state of growth of redroot pigweed (Amaranthus retroflexus L.) which occurred naturally, was visually observed and evaluated in the same manner as in Test Example 1.

One may read the inhibition as the relative decrease from the control value, in per cent. Regarding `CON(C)C(=O)Nc1ccc(Br)cc1` [Metobromuron, 3-(4-bromophenyl)-1-methoxy-1-methylurea], the inhibition at 1000 g/ha in test [1] was determined as 85%; in test [4], 50%; in test [5], 30%; in test [7], 53%; in test [8], 25%. Moreover, the inhibition at 1500 g/ha in test [2] came out at 30%. For the same molecule, the figures for the inhibition at 375 g/ha in test [3] and in test [6] were 65% and 40%, respectively. In addition, the inhibition at 562.5 g/ha in test [3] came out at 76%. Also, the inhibition at 750 g/ha in test [4] is 33%.
